Values after ≈ are worked out from the molar mass of the structure shown.
Assays:
Salmonella typhimurium = experiment: Antibacterial activity against Salmonella typhimurium after 16 to 18 hrs by micro-dilution method; format: functional, Salmonella enterica subsp. enterica serovar Typhimurium; conditions: Salmonella enterica
Klebsiella pneumoniae = experiment: Antibacterial activity against Klebsiella pneumoniae after 16 to 18 hrs by micro-dilution method; format: functional
Klebsiella aerogenes = experiment: Antibacterial activity against Enterobacter aerogenes after 16 to 18 hrs by micro-dilution method; format: functional
Acinetobacter baumannii = experiment: Antibacterial activity against Acinetobacter baumannii after 16 to 18 hrs by micro-dilution method; format: functional
Staphylococcus aureus = experiment: Antibacterial activity against Staphylococcus aureus after 16 to 18 hrs by micro-dilution method; format: functional
Morganella morganii = experiment: Antibacterial activity against Morganella morganii after 16 to 18 hrs by micro-dilution method; format: functional
Escherichia coli [1] = experiment: Antibacterial activity against Escherichia coli BW25113 after 16 to 18 hrs by micro-dilution method; format: functional
Bacillus subtilis = experiment: Antibacterial activity against Bacillus subtilis 168 after 16 to 18 hrs by micro-dilution method; format: functional; conditions: subsp. subtilis str. 168
Escherichia coli [2] = experiment: Antibacterial activity against tolC-deficient Escherichia coli BW25113 after 16 to 18 hrs by micro-dilution method; format: functional
Vibrio cholerae = experiment: Antibacterial activity against Vibrio cholerae after 16 to 18 hrs by micro-dilution method; format: functional
Pseudomonas aeruginosa = experiment: Antibacterial activity against Pseudomonas aeruginosa after 16 to 18 hrs by micro-dilution method; format: functional
Shigella boydii = experiment: Antibacterial activity against Shigella boydii after 16 to 18 hrs by micro-dilution method; format: functional
Edwardsiella tarda = experiment: Antibacterial activity against Edwardsiella tarda after 16 to 18 hrs by micro-dilution method; format: functional
Escherichia coli [3] = experiment: Induction of membrane permeabilization in Escherichia coli BW25113 at MIC after 15 mins by propidium iodide staining-based fluorescence microplate reader method relative to 50% ethanol; format: functional

Compound	MIC (Salmonella typhimurium) [µg/mL]	MIC (Klebsiella pneumoniae) [µg/mL]	MIC (Klebsiella aerogenes) [µg/mL]	MIC (Acinetobacter baumannii) [µg/mL]	MIC (Staphylococcus aureus) [µg/mL]	MIC (Morganella morganii) [µg/mL]	MIC (Escherichia coli [1]) [µg/mL]	MIC (Bacillus subtilis) [µg/mL]	MIC (Escherichia coli [2]) [µg/mL]	MIC (Vibrio cholerae) [µg/mL]	MIC (Pseudomonas aeruginosa) [µg/mL]	MIC (Shigella boydii) [µg/mL]	MIC (Edwardsiella tarda) [µg/mL]	Activity (Escherichia coli [3]) [%]
CCCCCCCCCOc1cccc(N)c1	> 80	> 80	> 80	> 80	> 80	> 80	> 40	40 (≈ 170 µM)	10 (≈ 42.5 µM)	> 80	> 80	> 80	> 80	
CCCCCCCCCOc1ccc(CCN)cc1	5.3 (≈ 20.1 µM)	5.3 (≈ 20.1 µM)	11 (≈ 41.8 µM)	5.3 (≈ 20.1 µM)	2.6 (≈ 9.87 µM)	> 84	5.3 (≈ 20.1 µM)	0.66 (≈ 2.51 µM)	1.3 (≈ 4.93 µM)	5.3 (≈ 20.1 µM)	> 84	5.3 (≈ 20.1 µM)	> 84	
CCCCCCCCCCCCCCCOc1ccc2[nH]cc(CCN)c2c1.Cl	> 124	> 124	> 124	> 124	> 124	> 124	> 124	> 124	> 124	> 124	> 124	> 124	> 124	13
Cl.NCCc1c[nH]c2ccc(OCCCCCCCc3ccccc3)cc12	7	7	14	7	3.5	> 112	14	1.8	1.8	7	56	7	28	
CCCCCCCCCOc1ccc2[nH]cc(CCNC(=O)OC(C)(C)C)c2c1	> 130	> 130	> 130	> 130	> 130	> 130	> 130	> 130	> 130	> 130	> 130	> 130	> 130	
CCCCCCCCCOc1ccc2[nH]ccc2c1	> 83	> 83	> 83	> 83	> 83	> 83	> 83	> 83	> 83	> 83	> 83	> 83	> 83	
CCCCCCCCCOc1ccc2[nH]cc(CC[N+](C)(C)C)c2c1	26	26	52	52	6.5	> 104	52	52	6.5	> 104	52	26	26	
CCCCCCCCCCCCCCOc1ccc2[nH]cc(CCN)c2c1.Cl	> 119	> 119	> 119	> 119	3.4 to 30	> 119	> 119	15	> 119	> 119	> 119	> 119	> 119	11
